Test results as given in patent publication US20130345199A1, “1-[M-CARBOXAMIDO(HETERO)ARYL-METHYL]-PIPERIDINE-4-CARBOXAMIDE DERIVATIVES” (Actelion Pharmaceuticals Ltd., priority 2012, published 2013).

Biological target: T1, CXCR7 (Homo sapiens, UniProt P25106)
T1 construct: host or cells: CHO-K1 (PathHunter CXCR7 b-arrestin cell line, stably transfected)
Assay: PathHunter CHO-K1 CXCR7 b-arrestin assay (agonistic activity)
Format: cell-based
Conditions: PathHunter CHO-K1 CXCR7 b-arrestin cell line, 90 minutes at 37° C.
Method: The […] receptor and CXCR7 agonistic activities of the compounds of formula (I) are determined in accordance with the following experimental method.
The assay is using the PathHunter™ CHO-K1 CXCR7 b-arrestin cell line from DiscoverX. The system is based on the Enzyme Fragment Complementation Technology. Two complementing fragments of the b-galactosidase enzyme are expressed within stably transfected cells. The larger portion of b-gal, termed EA for Enzyme Acceptor, is fused to the C-terminus of b-arrestin 2. The smaller fragment, termed ProLink™ tag, is fused to CXCR7 at the C-terminus. Upon activation, b-arrestin is recruited which forces the interaction of ProLink and EA, allowing complementation of the two fragments of b-gal and the formation of a functional enzyme which is capable of hydrolysing the substrate and generating a chemiluminescent signal.
CHO-K1 CXCR7 b-arrestin cells are detached from culture dishes with a cell dissociation buffer (Invitrogen, #13151-014) and collected in growing medium (F12HAMS 90% (v/v)/FCS 10% (v/v), Penicilin/streptomycin 1% (v/v)). 5000 cells per well (in 20 μl) are seeded in a 384 well plate (white-walled, clear bottom; BD Falcon #353274). The plate is incubated at 37° C./5% CO2 for 24 hours. Medium is then replaced by […] (Invitrogen #31985) for 3 to 4 hours. Test compounds are dissolved at 10 mM in DMSO and serially diluted in DMSO to 200× of the final concentration for dose response curves. Compounds are then diluted 1:33.3 in HBSS1X. 5 μl/well of HBSS1X/20 mM HEPES/0.2% BSA are added to the assay plate followed by addition of 5 μl/well of diluted compounds. CXCL12 (Peprotech #300-28A) may be used as a reference agonist. The plate is incubated for 90 minutes at 37° C. 12 μl of detection reagent (Path Hunter Detection Kit, DiscoveRx, #93-0001) is transferred to the assay plate and to the plate is incubated for 1 hour at room temperature. Luminescent signal is read in a microplate reader (FLUOstar Optima, bmg). The calculated EC50 values may fluctuate depending on the daily cellular assay performance. Fluctuations of this kind are known to those skilled in the art.

T1 sequence (P25106 whole entry): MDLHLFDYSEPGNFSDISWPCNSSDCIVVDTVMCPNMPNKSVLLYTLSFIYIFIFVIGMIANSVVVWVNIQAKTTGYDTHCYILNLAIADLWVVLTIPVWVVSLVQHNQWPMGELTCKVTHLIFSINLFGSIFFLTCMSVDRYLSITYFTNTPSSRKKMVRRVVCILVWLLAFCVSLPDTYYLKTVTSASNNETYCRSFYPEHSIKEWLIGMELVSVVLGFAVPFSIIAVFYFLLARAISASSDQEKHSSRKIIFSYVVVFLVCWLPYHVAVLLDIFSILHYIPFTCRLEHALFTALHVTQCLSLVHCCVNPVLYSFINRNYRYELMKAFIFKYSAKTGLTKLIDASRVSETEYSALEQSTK

For `CC(C)(C)NC(=O)C1(F)CCN(Cc2cccc(NC(=O)c3cccc(C(F)(F)F)n3)c2)CC1` [Example 4.009, 6-Trifluoromethyl-pyridine-2-carboxylic acid [3-(4-tert-butylcarbamoyl-4-fluoro-piperidin-1-ylmethyl)-phenyl]-amide], the EC50 was 20 nM.

For `O=C(Nc1cccc(CN2CCC(C(=O)NC3CCCC3)CC2)c1)c1ccc(F)c[n+]1[O-]` [Example 4.006, 5-Fluoro-1-oxy-pyridine-2-carboxylic acid [3-(4-cyclopentylcarbamoyl-piperidin-1-ylmethyl)-phenyl]-amide], the EC50 was 1 nM.

“N-[3-(4-tert-Butylcarbamoyl-piperidin-1-ylmethyl)-phenyl]-5-methoxy-nicotinamide [Example 4.014]” gave an EC50 of 8 nM.

For `Cc1cncc(C(=O)Nc2ccc(F)c(CN3CCC(C(=O)NC4CCCCC4)CC3)c2)c1` [Example 4.018, N-[3-(4-Cyclohexylcarbamoyl-piperidin-1-ylmethyl)-4-fluoro-phenyl]-5-methyl-nicotinamide], the EC50 was 11 nM.

For `Cc1cncc(C(=O)Nc2cccc(CN3CCC(C(=O)NC4CCCC4)CC3)c2)c1` [Example 2.042], the EC50 was 5 nM.

In the case of `Cc1cncc(C(=O)Nc2cccc(CN3CCC(C)(C(=O)NC4CCCCC4)CC3)c2)c1` [Example 4.003, N-[3-(4-Cyclohexylcarbamoyl-4-methyl-piperidin-1-ylmethyl)-phenyl]-5-methyl-nicotinamide], the EC50 is reported as 197 nM.

In the case of `COCCNC(=O)C1CCN(Cc2cccc(NC(=O)c3ccc(Cl)cc3)c2)CC1` [Example 2.005], the EC50 is reported as 5 nM.

In the case of `O=C(Nc1cccc(CN2CCC(C(=O)NC3CCCCC3)CC2)c1)c1cccs1` [Example 2.075], the EC50 is reported as 7 nM.

In the case of `CC(C)(C)NC(=O)C1CCN(Cc2cccc(NC(=O)c3ccc(Cl)cc3)c2)CC1` [Example 2.004], the EC50 is reported as 1 nM.

In the case of `CC(NC(=O)C1CCN(Cc2cccc(NC(=O)c3ccc(Cl)cc3)c2)CC1)c1cccc2ccccc12` (racemic) [Example 2.018], the EC50 is reported as 349 nM.

With `O=C(Nc1cccc(CN2CCC(C(=O)NC3CCCCC3)CC2)n1)c1ccc(F)cc1` [Example 3.003, 1-[6-(4-Fluoro-benzoylamino)-pyridin-2-ylmethyl]-piperidine-4-carboxylic acid cyclohexylamide] the EC50 was 167 nM.

`CNC(=O)C1CCN(Cc2cccc(NC(=O)c3cccs3)c2)CC1` [Example 2.072] gave an EC50 of 188 nM.

In the case of `O=C(Nc1cccc(CN2CCC(C(=O)NCC(F)(F)F)CC2)c1)c1ccc(Cl)cc1` [Example 2.031], the EC50 is reported as 3 nM.

Work on `Cc1cncc(C(=O)Nc2cccc(CN3CCC(C(=O)NCC4CC4)CC3)c2)c1` [Example 2.043] yielded an EC50 of 20 nM.

`CCCNC(=O)C1CCN(Cc2cccc(NC(=O)c3cccc(C(F)(F)F)n3)c2)CC1` [Example 2.094] gave an EC50 of 1 nM.

Work on `Cc1cncc(C(=O)Nc2cccc(CN3CCC(C(=O)N4CCCC4C)CC3)c2)c1` (racemic) [Example 2.050] yielded an EC50 of 26 nM.

`CC(C)(C)[C@@H](CO)NC(=O)C1CCN(Cc2cccc(NC(=O)c3cccc(C(F)(F)F)n3)c2)CC1` [Example 2.067] gave an EC50 of 406 nM.

For `Cc1cncc(C(=O)Nc2cccc(CN3CCC(C)(C(=O)NC(C)(C)C)CC3)c2)c1` [Example 4.004, N-[3-(4-tert-Butylcarbamoyl-4-methyl-piperidin-1-ylmethyl)-phenyl]-5-methyl-nicotinamide], the EC50 was 59 nM.

`CC(C)C(CO)NC(=O)C1CCN(Cc2cccc(NC(=O)c3cccc(C(F)(F)F)n3)c2)CC1` (racemic) [Example 2.064] was tested, and the EC50 was 87 nM.

Work on `CC(C)(C)CNC(=O)C1CCN(Cc2cccc(NC(=O)c3cccc(C(F)(F)F)n3)c2)CC1` [Example 2.070] yielded an EC50 of 6 nM.

For `COc1ccc(CNC(=O)C2CCN(Cc3cccc(NC(=O)c4ccc(Cl)cc4)c3)CC2)cc1` [Example 2.030], the EC50 was 832 nM.

Compound `O=C(Nc1cncc(CN2CCC(C(=O)NC3CCCCC3)CC2)c1)c1ccc(F)cc1` [Example 3.005, 1-[5-(4-Fluoro-benzoylamino)-pyridin-3-ylmethyl]-piperidine-4-carboxylic acid cyclohexylamide] has an EC50 of 57 nM.

`Cc1cncc(C(=O)Nc2cccc(CN3CCC(C(=O)NC4CCC4)CC3)c2)c1` [Example 2.041] was tested, and the EC50 was 13 nM.

For `COc1cccc(CNC(=O)C2CCN(Cc3cccc(NC(=O)c4ccc(Cl)cc4)c3)CC2)c1` [Example 2.028], the EC50 was 394 nM.

`CCC(C)(C)NC(=O)C1CCCN(Cc2cccc(NC(=O)c3cccc(C(F)(F)F)n3)c2)CC1` (racemic) [Example 2.088] showed an EC50 of 19 nM.

`Cc1cc(CNC(=O)C2CCN(Cc3cccc(NC(=O)c4ccc(Cl)cc4)c3)CC2)c(C(F)(F)F)o1` [Example 2.034] was tested, and the EC50 was 533 nM.

In the case of `CCC(C)NC(=O)C1CCCN(Cc2cccc(NC(=O)c3cccc(C(F)(F)F)n3)c2)CC1` (racemic) [Example 2.087], the EC50 is reported as 6 nM.

`CNC(=O)C1CCN(Cc2cccc(NC(=O)c3cccc(C(F)(F)F)n3)c2)CC1` [Example 2.068] was tested, and the EC50 was 4 nM.

For `Cc1cncc(C(=O)Nc2cccc(CN3CCC(C(=O)NC(C)C)CC3)c2)c1` [Example 2.038], the EC50 was 12 nM.

With `COc1ccccc1CNC(=O)C1CCN(Cc2cccc(NC(=O)c3ccc(Cl)cc3)c2)CC1` [Example 2.026] the EC50 was 15 nM.

For `CC(C)(C)NC(=O)C1CCN(Cc2cc(NC(=O)c3ccc(F)cc3)cs2)CC1` [Example 3.009, 1-[4-(4-Fluoro-benzoylamino)-thiophen-2-ylmethyl]-piperidine-4-carboxylic acid tert-butylamide], the EC50 was 4 nM.

With `O=C(Nc1cccc(CN2CCC(C(=O)NC3CCCCC3)CC2)c1)c1cccc(C(F)(F)F)n1` [Example 1.002, 6-Trifluoromethyl-pyridine-2-carboxylic acid [3-(4-cyclohexylcarbamoyl-piperidin-1-ylmethyl)-phenyl]-amide] the EC50 was 1 nM.

`CC(C)(C)NC(=O)C1CCN(Cc2cc(NC(=O)c3cccc(C(F)(F)F)n3)ncn2)CC1` [Example 5.001, 6-Trifluoromethyl-pyridine-2-carboxylic acid [6-(4-tert-butylcarbamoyl-piperidin-1-ylmethyl)-pyrimidin-4-yl]-amide] gave an EC50 of 29 nM.

`CC(C)NC(=O)C1CCN(Cc2cccc(NC(=O)c3ccc(Cl)cc3)c2)CC1` [Example 2.003] gave an EC50 of 0.8 nM.

For `O=C(NC1CCCCC1)C1CCN(Cc2cccc(NC(=O)[C@@H]3C[C@@H]4CC[C@H]3C4)c2)CC1` (racemic) [Example 1.018, Rac-1-{3-[((1S,2R,4R)-Bicyclo[2.2.1]heptane-2-carbonyl)-amino]-benzyl}-piperidine-4-carboxylic acid cyclohexylamide], the EC50 was 5 nM.

For `CCC(C)(C)NC(=O)C1CCN(Cc2cccc(NC(=O)c3cncc(C)c3)c2)CC1` [Example 2.059], the EC50 was 3 nM.

Work on “1-[3-(3-Fluoro-benzoylamino)-benzyl]-piperidine-4-carboxylic acid cyclohexylamide [Example 1.103]” yielded an EC50 of 6 nM.

In the case of `CN(C)C(=O)C1CCN(Cc2cccc(NC(=O)c3cccs3)c2)CC1` [Example 2.073], the EC50 is reported as 155 nM.

In the case of `CCNC(=O)C1CCN(Cc2cccc(NC(=O)c3cccc(C(F)(F)F)n3)c2)CC1` [Example 2.069], the EC50 is reported as 4 nM.

`Cc1cncc(C(=O)Nc2cccc(CN3CCC(C(=O)N4CC[C@@H](F)C4)CC3)c2)c1` [Example 2.052] was tested, and the EC50 was 121 nM.

`O=C(Nc1cccc(CN2CCC(C(=O)NC3CCC(O)CC3)CC2)c1)c1ccc(Cl)cc1` (stereo not drawn) [Example 2.011] was tested, and the EC50 was 241 nM.

With `O=C(Nc1cccc(CN2CCC(C(=O)NC3Cc4ccccc4C3)CC2)c1)c1ccc(Cl)cc1` [Example 2.033] the EC50 was 9 nM.
